In patent publication US5639766A, “N-substituted azaheterocyclic carboxylic acids and esters thereof” (Novo Nordisk A/S, priority 1993, dated 1997):
Where a name gives a salt, the structure may show the parent alone.

Key:
[1] = system: GABA uptake from the synaptic cleft into presynaptic nerve terminals and glial cells; conditions: background statement; cited from earlier work
[2] = background statement; cited from earlier work
[3] = system: [^3 H]-GABA uptake; assay: In vitro inhibition of [^3 H]-GABA uptake in rat cortical tissue; type: biochemical, Male wistar rat; conditions: rat cortical tissue homogenate, pH 7.5, 60 minutes at 30° C.
Procedure: Values for in vitro inhibition of [^3 H]-GABA uptake for the invention compounds were assessed essentially by the method of Fjalland (Acta Pharmacol. Toxicol. 1978, 42, 73-76). Male wistar rat cortical tissue was gently homogenized by hand using a glass/PTFE homogenizer in 10 volumes of 0.32M sucrose. Incubation was performed in a 40 mM tris HCl buffer (pH 7.5 at 30° C.) containing […], 4 mM MgSO4, […] and 10 mM glucose, for 60 minutes at 30° C. Values for inhibition of GABA uptake for some representative compounds are recorded in Table I.

[4] = system: GABA uptake; conditions: oral; Yunger, L. M. et al., 1984; cited from earlier work

IC50 [3] [nM] | Compound | orally active inhibitors of GABA uptake [4] | also measured
 | O=C(O)C1CCCNC1 (centres unmarked) [3-piperidinecarboxylic acid] |  | inhibitor of GABA uptake [1]: well-known and potent inhibitor of GABA uptake; cross the blood-brain barrier [2]: unable to cross the blood-brain barrier
332 | O=C(O)[C@@H]1CCCN(CCON=C2CCCCC2c2ccccc2)C1 (stereo partly drawn) [Example 1, (R)-1-(2-(((2-Phenylcyclohexylidene)amino)oxy)ethyl)-3-piperidinecarboxylicacid hydrochloride] |  | 
417 | O=C(O)[C@@H]1CCCN(CCON=C2CCCC=C2c2ccccc2)C1 [Example 2, (R)-1-(2-(((2-Phenylcyclohex-2-enylidene)amino)oxy)ethyl)-3-piperidinecarboxylic acid hydrochloride] |  | 
819 | O=C(O)[C@@H]1CCCN(CCON=C2c3ccccc3CCC2c2ccccc2)C1 (stereo partly drawn) [Example 4, (R)-1-(2-(((2-Phenyl-1,2,3,4-tetrahydro-1-naphthylidene)amino)oxy)ethyl)-3-piperidinecarboxylic acid hydrochloride] |  | 
1380 | O=C(O)[C@@H]1CCCN(CCON=C2CC(c3ccccc3)c3ccccc32)C1 (stereo partly drawn) [Example 5, (R)-1-(2-(((3-Phenyl-1-indanylidene)amino)oxy)ethyl)-3-piperidinecarboxylicacid hydrochloride] |  | 
 | O=C(O)C1CCCN(CCC=C(c2ccccc2)c2ccccc2)C1 (centres unmarked) [SK&F 89976A, N-(4,4-diphenyl-3-buten-1-yl)nipecotic acid] | orally active inhibitors of GABA uptake | 
 | O=C(O)C1=CCCN(CCC=C(c2ccccc2)c2ccccc2)C1 [SK&F 100330A, N-(4,4-diphenyl-3-buten-1-yl)guvacine] | orally active inhibitors of GABA uptake | 
 | O=C(O)CC1CCN(CCC=C(c2ccccc2)c2ccccc2)C1 (stereo not drawn) [SK&F 100561, N-(4,4-diphenyl-3-buten-1-yl)-homo-β-proline] | orally active inhibitors of GABA uptake | 
 | O=C(O)C1CCCN(CCC=C(c2ccccc2)c2cccs2)C1 (centres unmarked) [SK&F 100604J, N-(4-phenyl-4-(2-thienyl)-3-buten-1-yl)nipecotic acid] | orally active inhibitors of GABA uptake | 
9500 | (R)-1-(2-(((2-(Benzylidene)cyclohexylidene)amino)oxy)ethyl)-3-piperidinecarboxylic acid hydrochloride [Example 3] |  | 
